O=C(O)c1ccc[nH]c1=O
solubility (mole fraction)
Details	in acetone	in acetonitrile	in ethanol	in ethyl acetate	in isopropanol	in methanol	in n-butanol	in n-butyl acetate	in sec-butanol	in water
293.15 K	0.00135	0.000837	0.000992	0.000248	0.000278	0.00097	0.000215	5.2e-05	0.000138	0.000796
303.15 K	0.00199	0.00116	0.00134	0.000365	0.000401	0.00146	0.00031	7.5e-05	0.000199	0.00111
308.15 K	0.00233	–	–	–	–	–	–	–	–	–
313.15 K	0.00277	0.00169	0.00177	0.000559	0.000565	0.0021	0.000437	0.000105	0.000283	0.00159
318.15 K	0.0033	0.0019	0.00218	0.000661	0.000595	0.00253	0.000515	0.000124	0.000331	0.00195
323.15 K	0.00374	0.00218	0.0025	0.000795	0.000772	0.00297	0.000603	0.000146	0.000384	0.00237
333.15 K	–	0.00282	0.00351	0.00124	0.00106	0.00378	0.000817	0.000197	0.000525	0.00326
